# According to patent US4059693A, “Analgesic action of substance P” (priority 1976, dated 1977):
# Tests used:
# Male Swiss Webster mice = details: mouse, in vivo; for Reaction times with naloxone: ip
# brain opiate receptor = details: in vitro; cited from earlier work
# [1] = cited from earlier work
# human blister base = details: isolated, not pure compound per the patent; cited from earlier work
# test animals = test: Time course of analgesia in test animals; type: in vivo
# Description: The dosage rate is selected so as to provide analgesia for a useful minimum period of time, while at the same time avoiding any impact of sudden severe lowering of blood pressure.
# mice [2] = test: Reaction time in mice after intravenous injection in the tail vein; type: in vivo; details: 50 ng iv tail vein, 90 minutes
# Protocol: 50 ng of Substance P was administered peripherally to mice by intravenous injection in the tail vein. The mean reaction time at 90 minutes was 6.2 seconds.
# mice [3] = test: Hot plate analgesiometer in mice, intraperitoneal injection; type: in vivo
# Protocol: The drug was administered by intraperitoneal injection, employing the solution prepared according to Example 1. Three groups of mice, 5 animals per group, received a single injection ip of Substance P or vehicle alone. Mice weighed 30 grams each. Group 1: Substance P, 5 microgram per mouse ([…])([…]) Group 2: Substance P, 1 microgram per mouse (1 × 10^-6 g)(33.3 microgram/kg) Group 3: Vehicle alone
# On the day before the animals were to be given the drug, each animal was tested on the hot plate analgesiometer for its reaction time (the time in seconds after placing on the hot plate until the animal jumps). The next day animals were given the injection and then tested on the analgesiometer at times of 30, 60, 90, 120 and 150 minutes after the injection. From the reaction times observed the control reaction time determined the previous day was subtracted. The reaction times given in the table below are the increase in reaction time (over the control value) due to the injection.
# mammals = test: Analgesic potency, addictiveness and side-effects with morphine sulfate as standard of reference; type: in vivo
# anaesthetized rats = details: injected into anaesthetized rats; cited from earlier work
# blood pressure = details: intravenous administration described in the prior art; cited from earlier work
compound,measurement,setting,value
"CN1CC[C@]23c4c5ccc(O)c4O[C@H]2[C@@H](O)C=C[C@H]3[C@H]1C5.O=S(=O)(O)O [MS, morphine sulfate, reference compound]",Reaction times with naloxone,Male Swiss Webster mice,"not increased during the first measurement, but gradually became longer"
"Lipotropin C-Fragment: the entire 61-91 LPH fragment, extracted from pig pituitary (YGGFMTSEKSQTPLVTLFKNAIVKNAHKKGQ; Beta-endorphin; UniProt P01192 237-267, looked up)",Potency relative to methionine enkephalin in inhibiting binding of naloxone and dihydromorphine,brain opiate receptor,approximately thirty
Tyr-Gly-Gly-Phe-Met [Met-Enk],Analgesic activity in vivo,[1],does not exhibit significant analgesic activity in vivo
"CSCC[C@H](NC(=O)[C@H](CC(C)C)NC(=O)CNC(=O)[C@H](Cc1ccccc1)NC(=O)[C@H](Cc1ccccc1)NC(=O)[C@H](CCC(N)=O)NC(=O)[C@H](CCC(N)=O)NC(=O)[C@@H]1CCCN1C(=O)[C@H](CCCCN)NC(=O)[C@@H]1CCCN1C(=O)[C@@H](N)CCCNC(=N)N)C(N)=O [Substance P, H-Arg-Pro-Lys-Pro-Gln-Gln-Phe-Phe-Gly-Leu-Met-NH2]",Algogen (pain-producing) activity,human blister base,very potent algogen
same,Commencement of analgesia following administration,test animals,20 to 30 min
same,Time to peak effectiveness of analgesia,test animals,about 1.5 hours
same,Mean reaction time,mice [2],6.2 s
same,Reaction Time Over Controls,"mice [3]; Group 1: (5 × 10^-9 g)(0.167 microgram/kg) ip, 30 min",7.04 ± 1.91 s
same,Reaction Time Over Controls,"mice [3]; Group 1: (5 × 10^-9 g)(0.167 microgram/kg) ip, 60 min",6.56 ± 2.4 s
same,Reaction Time Over Controls,"mice [3]; Group 1: (5 × 10^-9 g)(0.167 microgram/kg) ip, 90 min",8.36 ± 3.2 s
same,Reaction Time Over Controls,"mice [3]; Group 1: (5 × 10^-9 g)(0.167 microgram/kg) ip, 120 min",6.24 ± 1.4 s
same,Reaction Time Over Controls,"mice [3]; Group 1: (5 × 10^-9 g)(0.167 microgram/kg) ip, 150 min",3.84 ± 2.12 s
same,Reaction Time Over Controls,"mice [3]; Group 2: 1 microgram per mouse (33.3 microgram/kg) ip, 30 min",7.6 ± 2.68 s
same,Reaction Time Over Controls,"mice [3]; Group 2: 1 microgram per mouse (33.3 microgram/kg) ip, 60 min",11.44 ± 3.49 s
same,Reaction Time Over Controls,"mice [3]; Group 2: 1 microgram per mouse (33.3 microgram/kg) ip, 90 min",10.96 ± 1.33 s
same,Reaction Time Over Controls,"mice [3]; Group 2: 1 microgram per mouse (33.3 microgram/kg) ip, 120 min",8.2 ± 3.18 s
same,Reaction Time Over Controls,"mice [3]; Group 2: 1 microgram per mouse (33.3 microgram/kg) ip, 150 min",4.08 ± 1.26 s
same,Increases in reaction times compared to the vehicle controls (Student t test),"mice [3]; groups 1 and 2, 150 min",not statistically significant
same,Increases in reaction times compared to the vehicle controls (Student t test),"mice [3]; groups 1 and 2, all times except 150 min",significant
same,Addictiveness,mammals; in vivo,nonaddictive
same,Side-effects,mammals; in vivo,relatively free from significant side-effects
same,Potency as an analgesic relative to morphine sulfate,mammals; morphine sulfate as standard of reference,about 450 times
same,Sialogogic activity,anaesthetized rats,stimulated salivary secretion
same,Duration of sharp lowering of blood pressure,blood pressure,≤ 7 min
same,Reaction times compared to those of controls,Male Swiss Webster mice,significantly increased
same,Reaction times with naloxone,Male Swiss Webster mice,"not increased during the first measurement, but gradually became longer"
